Measurements taken from patent publication US4379917A, “6"-(Substituted)-apramycin antibiotic derivatives and intermediates and starting materials therefor” (Eli Lilly and Company, priority 1981, dated 1983).
In brackets after ≈: the same amount, converted by molar mass. Like-named read-outs stand apart in the source and are kept apart here.

Columns and labels:
Assay type in all cases: cell-based
[1] = test system: Staphylococcus aureus 3055; experiment: MIC by standard agar dilution test
[2] = test system: Proteus morganii PR15; experiment: MIC by standard agar dilution test; conditions: Morganella morganii, PR15; Table II; agar dilution; read-out: Minimum Inhibitory Concentration
[3] = test system: Klebsiella pneumoniae KL2; experiment: MIC by standard agar dilution test; conditions: KL2, Table 1, agar dilution, read-out: Minimum Inhibitory Concentration
[4] = test system: Pseudomonas aeruginosa X239; experiment: MIC by standard agar dilution test
[5] = test system: Enterobacter aerogenes EB6; experiment: MIC by standard agar dilution test; conditions: Klebsiella aerogenes
[6] = test system: Proteus inconstans PV25; experiment: MIC by standard agar dilution test; conditions: Providencia alcalifaciens, PV25; Table 1; agar dilution; read-out: Minimum Inhibitory Concentration
[7] = test system: Serratia marcescens X99; experiment: MIC by standard agar dilution test
[8] = test system: Enterobacter cloacae EN453; experiment: MIC by standard agar dilution test; conditions: EN453, Table 1, agar dilution, read-out: Minimum Inhibitory Concentration
[9] = test system: Pseudomonas aeruginosa Ps15; experiment: MIC by standard agar dilution test
[10] = test system: Pseudomonas aeruginosa 4276; experiment: MIC by standard agar dilution test
[11] = test system: Pseudomonas solanacearum X185; experiment: microbe, parasite or virus in culture; conditions: Ralstonia solanacearum, X185, read-out: Minimum Inhibitory Concentration
[12] = test system: Salmonella typhosa SA12; experiment: MIC by standard agar dilution test; conditions: Salmonella enterica, read-out: Minimum Inhibitory Concentration
[13] = test system: Pseudomonas aeruginosa PI23; experiment: MIC by standard agar dilution test
[14] = test system: Escherichia coli EC14; experiment: MIC by standard agar dilution test; conditions: EC14, Table II, agar dilution, read-out: Minimum Inhibitory Concentration
[15] = test system: Serratia marcescens SE2; experiment: MIC by standard agar dilution test; conditions: SE2, Table 1, agar dilution, read-out: Minimum Inhibitory Concentration
[16] = test system: Pseudomonas aeruginosa X48; experiment: MIC by standard agar dilution test
[17] = test system: Bordetella bronchiseptica 16; experiment: MIC by standard agar dilution test
[18] = test system: Proteus morganii PR2; experiment: MIC by standard agar dilution test; conditions: Morganella morganii, PR2; Table 1; agar dilution; read-out: Minimum Inhibitory Concentration
[19] = test system: Proteus morganii PR1; experiment: MIC by standard agar dilution test; conditions: Morganella morganii, PR1; Table 1; agar dilution; read-out: Minimum Inhibitory Concentration
[20] = test system: Serratia marcescens SE3; experiment: MIC by standard agar dilution test
[21] = test system: Enterobacter aerogenes EB17; experiment: MIC by standard agar dilution test; conditions: Klebsiella aerogenes, EB17, read-out: Minimum Inhibitory Concentration
[22] = test system: Streptococcus faecalis X66; experiment: MIC by standard agar dilution test; conditions: Enterococcus faecalis, X66; Table II; agar dilution; read-out: Minimum Inhibitory Concentration
[23] = test system: Staphylococcus aureus 3074; experiment: MIC by standard agar dilution test; conditions: Table II, read-out: Minimum Inhibitory Concentration
Text: (§1) The antibacterial activity of the antibiotic compounds of this invention is illustrated by the following in vitro and in vivo test data obtained with representative compounds. In Tables I and II the minimum inhibitory concentration (MIC) for representative compounds against a wide range of gram-positive and gram-negative bacteria is presented. The MIC values were obtained by the standard agar dilution test.

[24] = test system: Pseudomonas aeruginosa Ps9; experiment: MIC by standard agar dilution test
[25] = test system: Klebsiella pneumoniae KL14; experiment: MIC by standard agar dilution test; conditions: KL14, read-out: Minimum Inhibitory Concentration
[26] = test system: Salmonella typhimurium; experiment: MIC by standard agar dilution test; conditions: Salmonella enterica, read-out: Minimum Inhibitory Concentration
[27] = test system: Pseudomonas aeruginosa SF-2; experiment: MIC by standard agar dilution test
[28] = test system: Pseudomonas aeruginosa X528; experiment: MIC by standard agar dilution test
[29] = test system: Pseudomonas aeruginosa Ps25; experiment: MIC by standard agar dilution test
[30] = test system: Enterobacter cloacae EB24; experiment: MIC by standard agar dilution test
[31] = test system: Citrobacter freundii CF17; experiment: MIC by standard agar dilution test
[32] = test system: Erwinia amylovora; experiment: MIC by standard agar dilution test; conditions: Table II, read-out: Minimum Inhibitory Concentration
Text: as §1

[33] = SE3, Table 1, read-out: Minimum Inhibitory Concentration

How did the MIC ([1]; Staphylococcus aureus, 3055, read-out: Minimum Inhibitory Concentration) turn out when `CN[C@@H]1[C@@H](O[C@H]2O[C@H](COS(C)(=O)=O)[C@@H](N)[C@H](O)[C@H]2O)O[C@H]2C[C@@H](N)[C@@H](O[C@H]3[C@H](O)[C@@H](O)[C@H](N)C[C@@H]3N)O[C@@H]2[C@@H]1O` [Test Compound 1, 6"-O-(Methanesulfonyl)apramycin] was run?
Its MIC is 2 µg/mL (≈ 3.24 µM).

And the MIC [2]?
Its MIC is 32 µg/mL (≈ 51.8 µM).

What about the MIC [3] of the same compound?
The MIC was 8 µg/mL (≈ 13 µM).

And the MIC ([4]; X239, Table 1, read-out: Minimum Inhibitory Concentration)?
Its MIC is 128 µg/mL (≈ 207 µM).

What about the MIC ([4]; X239, read-out: Minimum Inhibitory Concentration, Table II) of the same compound?
The MIC was 4 µg/mL (≈ 6.48 µM).

And the MIC ([5]; EB6, read-out: Minimum Inhibitory Concentration)?
The MIC was 4 µg/mL (≈ 6.48 µM).

And the MIC [6]?
Its MIC is 8 µg/mL (≈ 13 µM).

What about the MIC ([7]; X99, read-out: Minimum Inhibitory Concentration) of the same compound?
The MIC was 4 µg/mL (≈ 6.48 µM).

What about the MIC [8] of the same compound?
Its MIC is 8 µg/mL (≈ 13 µM).

And the MIC ([9]; PS15, Table 1, agar dilution, read-out: Minimum Inhibitory Concentration)?
The MIC was 128 µg/mL (≈ 207 µM).

What about the MIC ([10]; Pseudomonas aeruginosa, 4276, Table 1, agar dilution, read-out: Minimum Inhibitory Concentration) of the same compound?
The MIC was greater than 128 µg/mL.

And the MIC [11]?
Its MIC is 1 µg/mL (≈ 1.62 µM).

And the MIC [12]?
The MIC was 4 µg/mL (≈ 6.48 µM).

And the MIC ([13]; PI23, Table 1, agar dilution, read-out: Minimum Inhibitory Concentration)?
The MIC was greater than 128 µg/mL.

What about the MIC [14] of the same compound?
The MIC was 8 µg/mL (≈ 13 µM).

And the MIC [15]?
The MIC was 8 µg/mL (≈ 13 µM).

And the MIC ([16]; X48, Table 1, agar dilution, read-out: Minimum Inhibitory Concentration)?
The MIC was 128 µg/mL (≈ 207 µM).

And the MIC ([17]; Bordetella bronchiseptica, 16, Table II, agar dilution, read-out: Minimum Inhibitory Concentration)?
Its MIC is 16 µg/mL (≈ 25.9 µM).

What about the MIC [18] of the same compound?
Its MIC is 32 µg/mL (≈ 51.8 µM).

What about the MIC [19] of the same compound?
Its MIC is 8 µg/mL (≈ 13 µM).

And the MIC [20, 33]?
The MIC was 8 µg/mL (≈ 13 µM).

And the MIC ([20]; SE3, Table II, read-out: Minimum Inhibitory Concentration)?
Its MIC is 16 µg/mL (≈ 25.9 µM).

And the MIC [21]?
The MIC was 4 µg/mL (≈ 6.48 µM).

What about the MIC [22] of the same compound?
Its MIC is 32 µg/mL (≈ 51.8 µM).

What about the MIC [23] of the same compound?
Its MIC is 4 µg/mL (≈ 6.48 µM).

And the MIC ([24]; PS9, Table 1, agar dilution, read-out: Minimum Inhibitory Concentration)?
Its MIC is greater than 128 µg/mL.

What about the MIC [25] of the same compound?
Its MIC is 4 µg/mL (≈ 6.48 µM).

What about the MIC [26] of the same compound?
Its MIC is 4 µg/mL (≈ 6.48 µM).

And the MIC ([27]; SF2, Table 1, agar dilution, read-out: Minimum Inhibitory Concentration)?
The MIC was 128 µg/mL (≈ 207 µM).

And the MIC ([28]; X528, Table 1, agar dilution, read-out: Minimum Inhibitory Concentration)?
The MIC was 128 µg/mL (≈ 207 µM).

What about the MIC ([29]; PS25, Table 1, agar dilution, read-out: Minimum Inhibitory Concentration) of the same compound?
Its MIC is 64 µg/mL (≈ 104 µM).

What about the MIC ([30]; EB24, read-out: Minimum Inhibitory Concentration) of the same compound?
The MIC was 4 µg/mL (≈ 6.48 µM).

And the MIC ([31]; CF17, read-out: Minimum Inhibitory Concentration)?
Its MIC is 4 µg/mL (≈ 6.48 µM).

How did the MIC ([1]; Staphylococcus aureus, 3055, Table II, agar dilution, read-out: Minimum Inhibitory Concentration) turn out when `CN[C@@H]1[C@@H](O[C@H]2O[C@H](COS(=O)(=O)c3ccc(C)cc3)[C@@H](N)[C@H](O)[C@H]2O)O[C@H]2C[C@@H](N)[C@@H](O[C@H]3[C@H](O)[C@@H](O)[C@H](N)C[C@@H]3N)O[C@@H]2[C@@H]1O` [Test Compound 2, 6"-O-(Para-toluenesulfonyl)apramycin] was run?
Its MIC is less than 0.5 µg/mL.

What about the MIC [2] of the same compound?
Its MIC is 16 µg/mL (≈ 23.1 µM).

And the MIC [3]?
Its MIC is 16 µg/mL (≈ 23.1 µM).

What about the MIC ([4]; X239, Table II, read-out: Minimum Inhibitory Concentration) of the same compound?
The MIC was 16 µg/mL (≈ 23.1 µM).

And the MIC ([4]; X239, read-out: Minimum Inhibitory Concentration, Table 1)?
The MIC was greater than 128 µg/mL.

And the MIC ([5]; EB6, Table 1, agar dilution, read-out: Minimum Inhibitory Concentration)?
Its MIC is 16 µg/mL (≈ 23.1 µM).

And the MIC [6]?
The MIC was 16 µg/mL (≈ 23.1 µM).

And the MIC ([7]; X99, Table 1, agar dilution, read-out: Minimum Inhibitory Concentration)?
Its MIC is 16 µg/mL (≈ 23.1 µM).

And the MIC [8]?
The MIC was 16 µg/mL (≈ 23.1 µM).

What about the MIC ([9]; PS15, read-out: Minimum Inhibitory Concentration) of the same compound?
Its MIC is greater than 128 µg/mL.

What about the MIC ([10]; Pseudomonas aeruginosa, 4276, read-out: Minimum Inhibitory Concentration) of the same compound?
Its MIC is greater than 128 µg/mL.

And the MIC [11]?
The MIC was 1 µg/mL (≈ 1.44 µM).

And the MIC [12]?
Its MIC is 1 µg/mL (≈ 1.44 µM).

What about the MIC ([13]; PI23, read-out: Minimum Inhibitory Concentration) of the same compound?
Its MIC is greater than 128 µg/mL.

What about the MIC [14] of the same compound?
The MIC was 4 µg/mL (≈ 5.77 µM).

And the MIC [15]?
The MIC was 16 µg/mL (≈ 23.1 µM).

And the MIC ([16]; X48, read-out: Minimum Inhibitory Concentration)?
Its MIC is greater than 128 µg/mL.

What about the MIC ([17]; Bordetella bronchiseptica, 16, read-out: Minimum Inhibitory Concentration) of the same compound?
The MIC was 64 µg/mL (≈ 92.2 µM).

What about the MIC [18] of the same compound?
Its MIC is 16 µg/mL (≈ 23.1 µM).

What about the MIC [19] of the same compound?
The MIC was 16 µg/mL (≈ 23.1 µM).

What about the MIC [20, 33] of the same compound?
Its MIC is 16 µg/mL (≈ 23.1 µM).

What about the MIC ([20]; SE3, read-out: Minimum Inhibitory Concentration, Table II) of the same compound?
Its MIC is 32 µg/mL (≈ 46.1 µM).

And the MIC [22]?
Its MIC is 16 µg/mL (≈ 23.1 µM).

What about the MIC [32] of the same compound?
Its MIC is 2 µg/mL (≈ 2.88 µM).

What about the MIC [23] of the same compound?
Its MIC is 2 µg/mL (≈ 2.88 µM).

What about the MIC ([24]; PS9, read-out: Minimum Inhibitory Concentration) of the same compound?
The MIC was greater than 128 µg/mL.

What about the MIC [25] of the same compound?
Its MIC is 2 µg/mL (≈ 2.88 µM).

What about the MIC ([26]; Table II, agar dilution) of the same compound?
Its MIC is 4 µg/mL (≈ 5.77 µM).

What about the MIC ([27]; SF2, read-out: Minimum Inhibitory Concentration) of the same compound?
Its MIC is greater than 128 µg/mL.

What about the MIC ([28]; X528, read-out: Minimum Inhibitory Concentration) of the same compound?
The MIC was greater than 128 µg/mL.

And the MIC ([29]; PS25, read-out: Minimum Inhibitory Concentration)?
The MIC was greater than 128 µg/mL.

What about the MIC ([30]; EB24, Table 1, agar dilution, read-out: Minimum Inhibitory Concentration) of the same compound?
The MIC was 16 µg/mL (≈ 23.1 µM).

And the MIC ([31]; CF17, Table II, agar dilution, read-out: Minimum Inhibitory Concentration)?
Its MIC is 4 µg/mL (≈ 5.77 µM).
